For 1 molecule, concentration results are on record in ChEMBL document CHEMBL4330118, “Structure-guided discovery of a novel, potent, and orally bioavailable 3,5-dimethylisoxazole aryl-benzimidazole BET bromodomain inhibitor” (Bioorg Med Chem, 2019).

Common to all, as to type: ADME, organism-based
The nature of data set [1]: Plasma concentration in mouse xenografted with human SU-DHL10 cells at 3 mg/kg, po administered twice daily via gavage for 21 days measured at 2 hrs post last dose. For orientation: A xenograft is tissue or cells of one species grown in another, often human tumour cells in immunodeficient mice.
Data set [2] in a line: Plasma concentration in mouse xenografted with human SU-DHL10 cells at 3 mg/kg, po administered twice daily via gavage for 21 days measured at 12 hrs post last dose.
A short description of data set [3]: Plasma concentration in mouse xenografted with human SU-DHL10 cells at 10 mg/kg, po administered once daily via gavage for 21 days measured at 12 hrs post last dose.
A short description of data set [4]: Plasma concentration in mouse xenografted with human SU-DHL10 cells at 10 mg/kg, po administered once daily via gavage for 21 days measured at 2 hrs post last dose.
A short description of data set [5]: Plasma concentration in mouse xenografted with human SU-DHL10 cells at 1 mg/kg, po administered twice daily via gavage for 21 days measured at 12 hrs post last dose.
Data set [6] in a line: Plasma concentration in mouse xenografted with human SU-DHL10 cells at 10 mg/kg, po administered twice daily via gavage for 21 days measured at 2 hrs post last dose.
The nature of data set [7]: Plasma concentration in mouse xenografted with human SU-DHL10 cells at 20 mg/kg, po administered twice daily via gavage for 21 days measured at 12 hrs post last dose.
A short description of data set [8]: Plasma concentration in mouse xenografted with human SU-DHL10 cells at 20 mg/kg, po administered twice daily via gavage for 21 days measured at 2 hrs post last dose.
Data set [9] in a line: Plasma concentration in mouse xenografted with human SU-DHL10 cells at 10 mg/kg, po administered twice daily via gavage for 21 days measured at 12 hrs post last dose.
Data set [10] can be described thus: Plasma concentration in mouse xenografted with human SU-DHL10 cells at 1 mg/kg, po administered twice daily via gavage for 21 days measured at 2 hrs post last dose.

Consider `Cc1ccc2ncccc2c1-c1cc(-c2c(C)noc2C)cc2nc(C3CC3)[nH]c12`, for which the concentration at 2 h in data set [1] came to 2620 nM; in [4] it was 5830 nM; in [6] it was 4320 nM; in [8], 4780 nM; in data set [10], 556 nM. Besides, the concentration at 12 h in data set [2] amounted to 18 nM; in data set [3], 207 nM; in [5] it was 13 nM; in [7], 32 nM; in data set [9], 32 nM.
